# Data as given in patent US12186283B2, “Bismuth-thiol compositions and methods of use” (Microbion Corporation, priority 2018, dated 2025).
# Legend:
# [1] = Rat tolerance of BisEDT (inhalation, IV, oral); conditions: 100 μg/kg inhalation and IV and 250 μg/kg oral, single dose
# [2] = test system: E. coli ATCC 25922; conditions: control strain ATCC 25922 E. coli; per CLSI M100-S24 or provided by Microbion; cited from earlier work
# [3] = test system: MUCILAIR™ fully differentiated human airway epithelium; assay: Acute toxicity on […] fully differentiated human airway epithelium (LDH, TEER, morphology); assay type: cell-based
# Procedure: Controlled in vitro evaluation of BisEDT, with respect to potential cytotoxicity on fully differentiated human airway epithelium was carried out. Both solubilized and solid (powder/particulate) forms of BisEDT were evaluated for cytotoxicity by Epithelix, a contract research organization (CRO) specializing in this form of cytotoxicity evaluation utilizing a proprietary, in vitro fully differentiated human airway epithelium test system ([…]™). The […]™ system facilitated evaluation of cytotoxicity through both LDH release (from the culture medium side) and trans-epithelial electrical resistance (TEER) from the apical/air-exposed side as well as pre- and post-exposure microscopic examination for morphological changes (FIG. 13).
# The assay system used in this study is Epithelix's proprietary technology sold under the trademark […]™ […]™ is a fully differentiated and ready-to-use 3D model of human airway epithelium, constituted with primary human epithelial cells freshly isolated from nasal, tracheal or bronchial biopsies. […]™ (FIG. 24), is not only morphologically and functionally differentiated, but can also be maintained in a homeostatic state for a long period of time (Huang et al., 2009).
# […]™ is composed of basal cells, ciliated cells and mucus cells. The proportion of these various cell types is preserved compared to what one observes in vivo (Huang et al., 2011). Moreover the epithelia are started from de-differentiated cells. The cells undergo a progressive differentiation with time. After 45 days of culture, the epithelia are fully ciliated, secret mucus and are electrically tight (TEER>200 (2 Ω·cm^2). The activity of the main epithelial ionic channels, such as CFTR, EnaC, Na/K ATPase, is preserved and the epithelia is shown to respond in a regulated and vectorial manner to the pro-inflammatory stimulus, TNF-α (Huang et al., 2011). A large panel of cytokines, chemokines and metalloproteinases has been detected in […]™ (e.g. IL-8, IL-6, GM-CSF, MMP-9, GRO-α).
# BisEDT (MB-1-B3) was applied on the apical surface of […]™ during 1, 8, 24 and 48 hours (FIG. 13). The effect of 6 concentrations was studied: 0.001, 0.01, 0.1, 1, 10 and 30 uM. […] 30 μl solution at the selected concentration was applied on the apical surface of […]™. The negative control corresponds to the vehicle solution (0 μM) and untreated cultures. The positive control corresponds to 50 μl to 10% Triton X-100 diluted in a buffered saline solution. The study was run in triplicates.
# During the study, inserts were maintained in a CO2 incubator (37° C., 5% CO2, 100% humidity). The following end-points were determined: • Tissue integrity monitoring: Trans-Epithelial Electrical Resistance (TEER) measurement (quantitative) at D0, D1 and D2. • Cytotoxicity monitoring: LDH test (quantitative) at D0, D1 and D2. • Morphology: cellular and tissue integrity examined under contrast microscope at DO, D1 and D2.
# (§1) Compound BisEDT was applied on the apical surface of […]™. The effect of 5 concentrations after 1, 8, 24 and 48 hours exposure was studied: 0.033, 0.33, 3.33, 33.3, 333 μg/cm^2. The compound was diluted in Dextran powder at the targeted concentration and compressed in order to obtain a tablet. The study was run in triplicates. During the study, inserts were maintained in a CO2 incubator (37° C., 5% CO2, 100% humidity).
# as §1, with “of 1 μg/cm^2” for “of 5”, “was studied.” for “was studied: 0.033, 0.33, 3.33, 33.3, 333 μg/cm^2.”
# [4] = test system: Candida spp.; assay: Broth microdilution MIC, yeast (Example 13), group statement and QC; assay type: cell-based; conditions: C. parapsilosis ATCC 22019, footnote b not given
# [5] = test system: Klebsiella pneumoniae; assay: Broth microdilution MIC (Example 12)
# [6] = BisEDT as solid, 1 μg/cm^2, 1 hour exposure
# [7] = BisEDT as solid, 0.033 and 0.33 μg/cm^2, all tested time points
# [8] = BisEDT in solution 0.001-30 μM apical, 1, 8, 24 and 48 hours
compound,measurement,setting,value
"C1C[S][Bi]([S]CC[S][Bi]2[S]CC[S]2)[S]1 [BisEDT, bismuth-1,2-ethanedithiol]",tolerability,[1],tolerated
same,Expected MIC: acceptable range,[2],0.5 to 2 mg/L
same,Expected MIC: goal,[2],1 mg/L
same,morphology after exposure,"[3]; BisEDT as solid in dextran tablet, 3.33 μg/cm^2, 24 and 48 h",Cells were rounded and opaque at the periphery of inserts
same,morphology after exposure,"[3]; BisEDT as solid in dextran tablet, 0.033 and 0.33 μg/cm^2",No morphological modifications were observed
same,morphology after exposure,"[3]; BisEDT as solid in dextran tablet, 33.3 and 333 μg/cm^2, 8, 24 and 48h",Cells were rounded and opaque on the inserts
same,tissue integrity (TEER),"[3]; BisEDT as solid, 1 μg/cm^2, 8, 24 and 48H exposure",Loss of tissue integrity is observed
same,cytotoxicity (LDH release),"[3]; BisEDT as solid, 1 μg/cm^2, 8, 24 and 48h",time- and dose-dependent cytotoxicity is observed
same,morphology after exposure,"[3]; BisEDT as solid, 1 μg/cm^2, 1 hour and 8 hour exposure",no important morphological changes were observed
same,cytotoxicity (LDH release),[3]; [6],No significant effect on LDH release
same,tissue integrity (TEER),[3]; [6],no significant effect on TEER was observed
same,morphology after exposure,"[3]; BisEDT as solid, 1 μg/cm^2, 24h exposure",the epithelial cells on 2 inserts out of 3 were dead
same,morphology after exposure,"[3]; BisEDT as solid, 1 μg/cm^2, 48 h exposure",the epithelial cells on all 3 inserts were dead
same,cytotoxicity (LDH release),[3]; [7],No significant effect on LDH release
same,tissue integrity (TEER),[3]; [7],No significant effect was observed on TEER
same,"cytotoxicity (LDH increase, TEER reduction)","[3]; BisEDT as solid, 1 and 3.33 μg/cm^2, 24 h and 48h exposure",induces cytotoxicity
same,cytotoxicity (LDH release),"[3]; BisEDT as solid, 3.3, 33.3 and 333 μg/cm^2","time and dose dependent, cytotoxicity is observed"
same,tissue integrity (TEER),"[3]; BisEDT as solid, 3.33, 33.3 and 333 μg/cm^2, 8, 24 and 48H exposure",Loss of tissue integrity is observed
same,"toxicity (LDH, TEER, morphology)","[3]; BisEDT as solid, 33.3, 333 μg/cm^2",strong toxicity was observed
same,tissue integrity (TEER),"[3]; BisEDT as solid, all tested doses (0.033-333 μg/cm^2), 1 hour exposure",no significant effect on TEER is observed
same,"local toxicity on the airway epithelium (morphology, TEER, LDH)","[3]; BisEDT in liquid solution 0.001-30 μM, 1, 8, 24 and 48 hours",showed no local toxicity
same,morphology after exposure,[3]; [8],No morphology changes were observed
same,percentage of cytotoxicity (LDH release),[3]; [8],LDH release was not altered
same,tissue integrity (TEER),[3]; [8],didn't show significant effect on TEER
same,"highest tested concentration, no toxic effects observed","[3]; solubilized BisEDT, all time points up to 48 hours (=20.83 μg/mL)",30 µM
"CC(S)C(C)S.[Bi] (stereo not drawn) [BisBDT, bismuth-2,3-butanedithiol]","MIC 24 hr, second value of the pair x/y",[4]; 24 hr,2
same,"MIC 48 hr, second value of the pair x/y",[4]; 48 hr,4
C[C@@H](O)[C@H]1C(=O)N2C(C(=O)O)=C(S[C@@H]3CN[C@H](C(=O)N(C)C)C3)[C@H](C)[C@H]12 [MEM],MIC,"[5]; K. pneumoniae ATCC BAA-1705, QC organism",8 mg/L
same,MIC,"[5]; Klebsiella pneumoniae ATCC BAA-1705, ESBL/KPC",8 mg/L
same,MIC,"[5]; Klebsiella pneumoniae CDC 112, KPC",>8 mg/L
same,MIC,"[5]; Klebsiella pneumoniae CDC 113, ESBL/KPC",>8 mg/L
same,MIC,"[5]; Klebsiella pneumoniae CDC 115, ESBL/KPC",>8 mg/L
same,MIC,"[5]; Klebsiella pneumoniae CDC 120, ESBL/KPC",>8 mg/L
same,MIC,"[5]; Klebsiella pneumoniae CDC 126, ESBL/KPC",4 mg/L
same,MIC,"[5]; Klebsiella pneumoniae CDC 129, ESBL/KPC",8 mg/L
same,MIC,"[5]; Klebsiella pneumoniae CDC 135, ESBL/VIM",1 mg/L
same,MIC,"[5]; Klebsiella pneumoniae CDC 138, ESBL/NDM",>8 mg/L
same,MIC,"[5]; Klebsiella pneumoniae CDC 158, ESBL/NDM/OXA",>8 mg/L
same,MIC,"[5]; Klebsiella pneumoniae MMX 9029, ESBL",0.015 mg/L
